According to PMC10935098 (Molecules, 2024):
Converted amounts (≈) assume the structure as drawn. Where a SMILES comes first, the peptide text is derived from it. Bridges are numbered along the chain shown (N, C = ends). [ ]: non-standard residue; d: D form.

What was measured:
Candida tropicalis [1] = type: cell-based
Candida tropicalis [2] = type: cell-based; remark: listed apart in the source
[3] = tested on: Candida tropicalis (BNCC340288); details: BNCC340288, 24 h
[4] = tested on: Candida parapsilosis (BNCC336015); details: BNCC336015, 24 h
[5] = tested on: Bacillus subtilis (BNCC109047); details: BNCC109047, 24 h
[6] = tested on: Escherichia coli (BNCC336902); details: BNCC336902, 24 h
trypsin = details: pH 6.8
[7] = tested on: erythrocytes of C57BL/6 mice; details: 128 µM
[8] = tested on: human hepatocytes (THLE-3)
C57BL/6 mice = details: mouse, ip, 10 mg/kg
in vitro = details: serum
Bacillus subtilis = type: cell-based

Compound	Effect on growth of Candida tropicalis (growth curve) (Candida tropicalis [1])	Bactericidal effect on Candida tropicalis (Candida tropicalis [2])	Fungal counts after 60 min (Candida tropicalis [2])	Reduction of fungal counts (Candida tropicalis [2])	MIC, C. tropical [3] [µM]	MIC, C. parapsilosis [4] [µM]	MIC, B. subtilis [5] [µM]	MIC, E. coli [6] [µM]	Stability in SIF (trypsin)	Hemolysis [7]	Toxicity on human hepatocyte THLE-3 [8]	Body weight change (C57BL/6 mice; in vivo)	remaining at 4 h (in vitro) [%]	Effect on growth of Bacillus subtilis (growth curve) (Bacillus subtilis)	Cytotoxicity on human hepatocyte THLE-3 [8]	In vivo safety in mice (C57BL/6 mice)
CC(C)C[C@@H]1NC(=O)[C@@H](CCCCN)NC(=O)[C@@H]2CSSC[C@H](NC(=O)[C@H](CC(C)C)NC(=O)[C@@H](CCCCN)NC(=O)[C@@H](CCCCN)NC(=O)[C@@H](N)CC(C)C)C(=O)N[C@@H](CSSC[C@@H](C(N)=O)NC(=O)[C@@H](CCCCN)NC1=O)C(=O)N[C@H](CCCCN)C(=O)N2 [Pep 6] (H-L[dK][dK]LCC[dK]C[dK]L[dK]C-NH2; disulfide 5-8, 6-12)	inhibitory effects	significant bactericidal effect	1 × 10^3 cfu/mL	over 1000 fold	8 (≈ 11.2 µg/mL)	32 (≈ 45 µg/mL)	64 (≈ 90 µg/mL)	128 (≈ 180 µg/mL)	remained almost entirely intact after 24 h	less than 5%	little or no toxicity	no significant changes	20			
CC(C)C[C@@H]1NC(=O)[C@@H]2CSSC[C@@H](C(N)=O)NC(=O)[C@@H](CCCCN)NC(=O)[C@H](Cc3c[nH]c4ccccc34)NC(=O)[C@@H](CCCCN)NC(=O)[C@H](CSSC[C@H](NC(=O)[C@@H](N)CC(C)C)C(=O)N2)NC(=O)[C@@H](CCCCN)NC(=O)[C@H](CC(C)C)NC(=O)[C@@H](CCCCN)NC1=O [Pep 2] (H-LCCL[dK]L[dK]C[dK]W[dK]C-NH2; disulfide 2-8, 3-12)					>64	>64	>64	>64								
CC(C)C[C@@H]1NC(=O)[C@@H]2CSSC[C@@H](C(N)=O)NC(=O)[C@@H](CCCCN)NC(=O)[C@H](Cc3ccc(O)cc3)NC(=O)[C@@H](CCCCN)NC(=O)[C@H](CSSC[C@H](NC(=O)CN)C(=O)N2)NC(=O)[C@@H](CCCCN)NC(=O)[C@H](CC(C)C)NC(=O)[C@@H](CCCCN)NC1=O [Pep 1] (H-GCCL[dK]L[dK]C[dK]Y[dK]C-NH2; disulfide 2-8, 3-12)					>64	>64	>64	>64								
CC(C)C[C@@H]1NC(=O)[C@H](CCCCN)NC(=O)[C@H](CC(C)C)NC(=O)[C@H](CCCCN)NC(=O)[C@@H]2CSSC[C@H](NC(=O)[C@@H](N)CC(C)C)C(=O)N[C@@H](CSSC[C@@H](C(N)=O)NC(=O)[C@H](CCCCN)NC1=O)C(=O)N[C@@H](CC(C)C)C(=O)N[C@@H](CCCCN)C(=O)N2 [Pep 7] (H-LCCLKCKLKLKC-NH2; disulfide 2-6, 3-12)					64 (≈ 89 µg/mL)	64 (≈ 89 µg/mL)	64 (≈ 89 µg/mL)	>128	nearly fully degraded within one hour							
CC(C)C[C@@H]1NC(=O)[C@@H]2CSSC[C@@H](C(N)=O)NC(=O)[C@@H](CCCCN)NC(=O)[C@H](CC(C)C)NC(=O)[C@@H](CCCCN)NC(=O)[C@H](CSSC[C@H](NC(=O)[C@@H](N)CC(C)C)C(=O)N2)NC(=O)[C@@H](CCCCN)NC(=O)[C@H](CC(C)C)NC(=O)[C@@H](CCCCN)NC1=O [Pep 3] (H-LCCL[dK]L[dK]C[dK]L[dK]C-NH2; disulfide 2-8, 3-12)					>64	>64	>64	>64								
CC(C)C[C@@H]1NC(=O)[C@@H]2CSSC[C@@H](C(N)=O)NC(=O)[C@@H](CCCCN)NC(=O)[C@H](CC(C)C)NC(=O)[C@@H](CCCCN)NC(=O)[C@H](CC(C)C)NC(=O)[C@@H](CCCCN)NC(=O)[C@H](CSSC[C@H](NC(=O)[C@@H](N)CC(C)C)C(=O)N2)NC(=O)[C@@H](CCCCN)NC1=O [Pep 5] (H-LCCL[dK]C[dK]L[dK]L[dK]C-NH2; disulfide 2-6, 3-12)					64 (≈ 89 µg/mL)	128 (≈ 178 µg/mL)	128 (≈ 178 µg/mL)	32 (≈ 44.5 µg/mL)	remained almost entirely intact after 24 h	less than 5%			20			
CC(C)C[C@@H]1NC(=O)[C@@H]2CSSC[C@@H](C(N)=O)NC(=O)[C@@H](CCCNC(=N)N)NC(=O)[C@H](CC(C)C)NC(=O)[C@@H](CCCCN)NC(=O)[C@H](CC(C)C)NC(=O)[C@@H](CCCNC(=N)N)NC(=O)[C@H](CSSC[C@H](NC(=O)[C@@H](N)CC(C)C)C(=O)N2)NC(=O)[C@@H](CCCNC(=N)N)NC1=O [Pep 8] (H-LCCL[dR]C[dR]L[dK]L[dR]C-NH2; disulfide 2-6, 3-12)	inhibitory effects	significant bactericidal effect	1 × 10^3 cfu/mL	over 1000 fold	8 (≈ 11.8 µg/mL)	8 (≈ 11.8 µg/mL)	16 (≈ 23.6 µg/mL)	128 (≈ 189 µg/mL)	remained almost entirely intact after 24 h	less than 5%			20	inhibitory effects	remarkable cytotoxicity	favorable safety
CC(C)C[C@@H]1NC(=O)[C@@H]2CSSC[C@@H](C(N)=O)NC(=O)[C@@H](CCCCN)NC(=O)[C@H](CC(C)C)NC(=O)[C@@H](CCCCN)NC(=O)[C@H](CSSC[C@H](NC(=O)[C@@H](N)CC(C)C)C(=O)N2)NC(=O)[C@H](C)NC(=O)[C@@H](CCCCN)NC(=O)[C@H](CC(C)C)NC(=O)[C@@H](CCCCN)NC1=O [Pep 4] (H-LCCL[dK]L[dK]AC[dK]L[dK]C-NH2; disulfide 2-9, 3-13)					>64	>64	>64	>64								
CC(C)C[C@@H]1NC(=O)[C@H](CCCCN)NC(=O)[C@@H]2CSSC[C@H](NC(=O)[C@H](CC(C)C)NC(=O)[C@H](CCCCN)NC(=O)[C@H](CCCCN)NC(=O)[C@@H](N)CC(C)C)C(=O)N[C@@H](CSSC[C@@H](C(N)=O)NC(=O)[C@H](CCCCN)NC1=O)C(=O)N[C@@H](CCCCN)C(=O)N2 [Pep 9] (H-LKKLCCKCKLKC-NH2; disulfide 5-8, 6-12)	inhibitory effects		1 × 10^3 cfu/mL	over 1000 fold	16 (≈ 22.5 µg/mL)	16 (≈ 22.5 µg/mL)	128 (≈ 180 µg/mL)	>128	nearly fully degraded within one hour		little or no toxicity					
